For 14 molecules, TGI results are on record in PubChem BioAssay (NCI).

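In this assay, cells in 96-well plates receive the compound at five concentrations for 48 hours. Endpoints are linearly interpolated between the surrounding concentrations. Definition used: TGI = concentration required for complete inhibition of growth.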 Where only a bound is given, the exact number is not on record here.

What all share (assay): growth of human tumour cells (NCI), 48 h
The subject of test [1] is KM12 colon.
Test [2] concerns SNB-19 CNS.
The test system of test [3] is MDA-MB-435.
In test [4] the test system is M14 melanoma.
For test [5], the system named is TK-10 renal.
For test [6], the system named is A498 renal.
Test [7] relates to U251 CNS.
Test [8] relates to HOP-92 NSCLC.
The subject of test [9] is OVCAR-8 ovarian.
Test [10] deals with SF-268 CNS.

As to `[O-][n+]1c(CN2CCCCC2)nc2cccc3c2c1-c1ccccc1-3`, the TGI is above 100 µM in test [1]; 89.4 µM in [2]; 68 µM in [3]; 31.3 µM in test [4]; 67.5 µM in test [5]; 38.3 µM in test [6]. For the same molecule, the values for the TGI in test [7], in [8] and in test [9] were above 100 µM, 85.6 µM and 98.2 µM, respectively.
`O=CC(O)C(O)C(O)C1CNC(=S)O1` (stereo unspecified): the TGI in [1], in [3], in test [4], in test [5], in test [10] and in test [6] was above 100 µM each time. Further, the TGI in test [7], in test [8] and in [9] was above 100 µM throughout.
For the molecule `O=C(Sc1c(-c2ccccc2)c(=O)n(-c2ccccc2)c(=S)n1-c1ccccc1)c1cccs1`, the TGI in test [1], in test [2], in [3], in [4], in test [5] and in test [10] was above 100 µM throughout. In addition, the TGI in test [7], in [8] and in test [9] was above 100 µM in each case.
As for `CC(C)=CCOc1cc(NC(=S)c2ccsc2C)ccc1Cl`, the TGI in test [1], in test [2], in [3], in test [5], in test [10] and in test [6] was above 100 µM in each case. The TGI was above 100 µM in test [7], 37.1 µM in test [8] and above 100 µM in test [9].
For the molecule `Cc1c(OCc2ccccc2)c(=O)ccn1CCc1c[nH]c2ccccc12`, the TGI in test [1] was above 100 µM; in test [2], above 100 µM; in [3] it was 51.1 µM; in test [4], 86.2 µM; in [5], above 100 µM; in test [10] it was 64.1 µM. For the same molecule, the TGI was above 100 µM in test [7], 51.3 µM in test [8] and above 100 µM in [9].
`C=C[C@@]1(O)CCCC[C@@H]1CC(Sc1ccccc1)Sc1ccccc1`: the TGI in test [1] was determined as 37.9 µM; in test [2] it was 35.6 µM; in [3] it was 33 µM; in test [4], 37 µM; in test [5] it was 30.9 µM; in [10], 29 µM. In addition, the TGI in [6] is 85 µM; in test [7], 31.9 µM; in test [9], 34.1 µM.
`O=C(O)CC[P+](c1ccccc1)(c1ccccc1)c1ccccc1`: the TGI in test [1], in test [2], in [3], in [4], in [5] and in test [10] was above 100 µM in each case. For the same molecule, the TGI in test [6], in test [7] and in test [9] was above 100 µM throughout.
With `CCCC1C(=O)Nc2cccc3ncn(c23)C1=O` (stereo unspecified), the TGI in test [1], in [2], in test [3], in test [4], in test [10] and in test [6] was above 100 µM each time. The TGI in [7], in [8] and in [9] was above 100 µM each time.
For the molecule `CC12CCCCC1=[N+]([O-])C(C)(C)N2O` (stereo unspecified), the TGI in test [1], in test [2], in test [3], in test [4], in test [5] and in [10] was above 100 µM throughout. The TGI in [7], in [8] and in test [9] was above 100 µM in each case.
Take `CN(C)c1ccc(/C=C/C(=O)N[C@@H]2C(=O)N3[C@@H]2SC(C)(C)[C@@H]3C(=O)O)cc1`: the TGI in test [1], in test [2], in [3], in [4], in [5] and in test [10] was above 100 µM each time. Further, the TGI in [6], in test [7] and in test [9] was above 100 µM each time.
In the case of `C[N+](C)(C)C=Nc1cccc2c1CCCC2`, the TGI in test [2], in test [3], in test [4], in test [5], in [10] and in [6] was above 100 µM throughout. In addition, the TGI in [7], in test [8] and in test [9] was above 100 µM throughout.
For `Oc1ccccc1C1C=C(c2ccccc2)NC(N2CCCCC2)=C1c1nc2ccccc2[nH]1` (stereo unspecified), the TGI in test [1] was determined as 31.3 µM; in test [2], 28.7 µM; in [3], 29.6 µM; in test [4], 25.9 µM; in [5] it was 34.3 µM; in [10], 27.5 µM. Also, the TGI in test [7] worked out at 28.4 µM; in [8], 26.9 µM; in test [9], 30.9 µM.
With `Cc1nnc2n(c1=O)CCN2C`, the TGI in [1], in test [2], in test [3], in test [4], in test [5] and in [10] was above 100 µM in each case. In addition, the TGI in [7], in test [8] and in test [9] was above 100 µM in each case.
Regarding `CC(C)(C)CC(C)(C)NC(=S)NO`, the TGI in [1], in test [2], in [3], in test [4], in test [5] and in test [10] was above 100 µM each time. In addition, the TGI in test [6], in test [8] and in test [9] was above 100 µM each time.
